# Tests used:
# [1] = test system: mice subjected to controlled cortical impact injury; test: Contusion volume, cresyl violet staining; assay type: in vivo; conditions: day 28; for contusion volume: vehicle 13.5±4.0
# Procedure: All animal procedures were approved by the Animal Research Committee at Cheng Hsin General Hospital (Animal permit number […] 101-08), and all procedures complied with the Guide for the Care and Use of Laboratory Animals published by the US National Institutes of Health (NIH Publication No. 85-23, revised 1996). Animals were housed under a 12-h light/dark cycle and at constant temperature (21-25°C) and humidity (45-50%). They were allowed free access to pellet chow and water. TBI in mice was induced by a CCI injury model as previously described. Briefly, 8-week-old male C57BL/6 mice (weighing 22-25 g) were anesthetized through the use of intraperitoneal injection of sodium pentobarbital (65 mg/kg; Rhone Merieux, Harlow, UK) and placed in a stereotaxic frame. A 5 mm craniotomy was performed over the right parietal cortex, centered on the coronal suture and 0.1 mm lateral to the sagittal suture, and injury to dura was avoided. Injury was induced using a pneumatic piston with a rounded metal tip (2.5 mm diameter) that was angled 22.5° to the vertical so that the tip was perpendicular with the brain surface at the center of the craniotomy. The impact, with a velocity of […] and a deformation depth of 2 mm below the dura, was applied. The bone flap was immediately replaced and sealed, and the scalp was sutured. Body temperature was monitored throughout the surgery by a rectal probe; temperature was maintained at 37.0±0.5°C using a heated pad. Mice were placed in a heated cage to maintain body temperature, while recovering from anesthesia. Sham-operated mice underwent the same procedure as injured mice, but without CCI. Three sets of experiments were performed. The first set was to investigate the protective effects of salidroside. All animals were randomized into 1 of 3 groups (sham injury, CCI + vehicle, CCI + SALD 20). […] To determine the optimal dose of salidroside, a pilot study was performed using 2 different doses (20 and 50 mg/kg) administered 10 min after injury, and neurological deficits and tissue damage were evaluated as the main outcomes. […]
# [2] = test system: mice subjected to controlled cortical impact injury; test: Fluoro-Jade B staining of degenerating neurons; assay type: in vivo; conditions: day 1
# Procedure: All animal procedures were approved by the Animal Research Committee at Cheng Hsin General Hospital (Animal permit number […] 101-08), and all procedures complied with the Guide for the Care and Use of Laboratory Animals published by the US National Institutes of Health (NIH Publication No. 85-23, revised 1996). Animals were housed under a 12-h light/dark cycle and at constant temperature (21-25°C) and humidity (45-50%). They were allowed free access to pellet chow and water. TBI in mice was induced by a CCI injury model as previously described. Briefly, 8-week-old male C57BL/6 mice (weighing 22-25 g) were anesthetized through the use of intraperitoneal injection of sodium pentobarbital (65 mg/kg; Rhone Merieux, Harlow, UK) and placed in a stereotaxic frame. A 5 mm craniotomy was performed over the right parietal cortex, centered on the coronal suture and 0.1 mm lateral to the sagittal suture, and injury to dura was avoided. Injury was induced using a pneumatic piston with a rounded metal tip (2.5 mm diameter) that was angled 22.5° to the vertical so that the tip was perpendicular with the brain surface at the center of the craniotomy. The impact, with a velocity of […] and a deformation depth of 2 mm below the dura, was applied. The bone flap was immediately replaced and sealed, and the scalp was sutured. Body temperature was monitored throughout the surgery by a rectal probe; temperature was maintained at 37.0±0.5°C using a heated pad. Mice were placed in a heated cage to maintain body temperature, while recovering from anesthesia. Sham-operated mice underwent the same procedure as injured mice, but without CCI. Three sets of experiments were performed. The first set was to investigate the protective effects of salidroside. All animals were randomized into 1 of 3 groups (sham injury, CCI + vehicle, CCI + SALD 20). Surgery/injury, behavioral testing, and tissue analyses were performed by different individuals. Behavioral testing and tissue analyses were performed by individuals blinded to the treatment group. Salidroside (Cayman Chemical, Ann Arbor, MI, USA) dissolved in normal saline (0.25 mL) or a corresponding volume of vehicle (saline) was administered intraperitoneally 10 min following injury. Testing after injury was completed as follows: 1) behavioral testing at days 1, 4, 7, 14, 21, and 28 (n = 8-10 mice/group); 2) cresyl violet staining at day 28 (n = 9 mice/group); 3) histology, determination of brain water content, and western blot analysis at day 1 or 3 (n = 5-6 mice/group). To determine the optimal dose of salidroside, a pilot study was performed using 2 different doses (20 and 50 mg/kg) administered 10 min after injury, and neurological deficits and tissue damage were evaluated as the main outcomes. […] The second set of experiment was to assess the effect of the inhibition of PI3K/Akt with the specific PI3K inhibitor, LY294002 (Cell Signaling Technology, Danvers, MA, USA), on salidroside effects. Animals were randomized into 4 groups. Mice received either: 1) icv pretreatment of LY294002 followed by SALD 20 after CCI (S20Y group); or 2) icv pretreatment of saline (vehicle control) followed by SALD 20 after CCI (S20V group). 3) Mice were infused icv with saline and were subjected to sham injury. 4) Mice were infused icv with LY294002 and were subjected to sham injury. Testing after injury was completed as follows: 1) cresyl violet staining at day 28 (n = 6 mice/group); 2) western blot analysis at day 1 (n = 6 mice/group). The third set of experiment was performed to examine the neuroprotective time window afforded by salidroside. Mice received intraperitoneal SALD 20 or vehicle (saline) at 3 or 6 h following CCI and were sacrificed 1 day later for FJB staining and western blot analysis (n = 6 mice/group). […]
smiles,measurement,setting,value
"OC[C@H]1O[C@@H](OCCc2ccc(O)cc2)[C@H](O)[C@@H](O)[C@@H]1O [SALD, salidroside]",contusion volume as % of the vehicle group,[1]; 20 mg/kg ip 10 min after CCI,73.8%
same,contusion volume,"[1]; 20 mg/kg ip 10 min after CCI, P<0.05",9.9±1.1 mm^3
same,contusion volume,"[1]; 50 mg/kg ip 10 min after CCI, P>0.05",11.7±3.2 mm^3
same,FJB-positive neurons around the injured cortical area,"[2]; 20 mg/kg ip 10 min after CCI, vehicle 87.9±5.9, P<0.01",55.1±6.9 cells/field
same,reduction of the number of FJB-positive neurons,[2]; 20 mg/kg ip 10 min after injury,37.3%
same,reduction of neuronal damage (FJB),[2]; 20 mg/kg ip 3 h after injury,21.9%
same,FJB-positive neurons around the injured cortical area,"[2]; 20 mg/kg ip 3 h after injury, vehicle 91.2±3.3, P<0.001",71.2±2.7 cells/field
same,reduction of neuronal damage (FJB),[2]; 20 mg/kg ip 6 h after injury,22.8%
same,FJB-positive neurons around the injured cortical area,"[2]; 20 mg/kg ip 6 h after injury, vehicle 92.9±3.3, P<0.001",71.7±1.6 cells/field

# Reference: article PMC3454376, “Salidroside Improves Behavioral and Histological Outcomes and Reduces Apoptosis via PI3K/Akt Signaling after Experimental Traumatic Brain Injury” (PLoS ONE, 2012)
